According to patent US20120101110A1, “Diaza-spiro[5.5]undecanes” (priority 2010, published 2012):

Legend:
human orexin 2 receptors [1] = biological target: T1, human orexin 2 receptors (Homo sapiens, UniProt O43614); experiment: Calcium accumulation in cells (FLIPR), hOx2R; format: cell-based; conditions: cells expressing human orexin 2 receptor; inhibition of orexin A-induced calcium accumulation; Cheng and Prusoff correction
T1 sequence (O43614 1-444): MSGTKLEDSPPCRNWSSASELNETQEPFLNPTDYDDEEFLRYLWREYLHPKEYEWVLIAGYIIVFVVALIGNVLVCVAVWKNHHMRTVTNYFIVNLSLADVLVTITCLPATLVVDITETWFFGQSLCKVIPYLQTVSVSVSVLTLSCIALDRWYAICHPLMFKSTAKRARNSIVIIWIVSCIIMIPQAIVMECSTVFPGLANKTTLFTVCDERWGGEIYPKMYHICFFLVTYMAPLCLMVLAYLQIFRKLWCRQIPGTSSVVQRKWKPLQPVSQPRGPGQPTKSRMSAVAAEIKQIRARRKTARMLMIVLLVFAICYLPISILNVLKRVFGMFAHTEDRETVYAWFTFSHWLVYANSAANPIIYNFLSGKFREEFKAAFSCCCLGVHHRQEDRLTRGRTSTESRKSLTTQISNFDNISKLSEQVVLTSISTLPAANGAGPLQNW

human orexin 1 receptors [2] = biological target: T2, human orexin 1 receptors (Homo sapiens, UniProt O43613); experiment: Radioligand binding assay ([3H]-SB649868 competition), hOx1R; conditions: competition with about 1 nM [3H]-SB649868; CHO or HEK cell membranes expressing human orexin 1 receptor
T2 sequence (O43613 1-425): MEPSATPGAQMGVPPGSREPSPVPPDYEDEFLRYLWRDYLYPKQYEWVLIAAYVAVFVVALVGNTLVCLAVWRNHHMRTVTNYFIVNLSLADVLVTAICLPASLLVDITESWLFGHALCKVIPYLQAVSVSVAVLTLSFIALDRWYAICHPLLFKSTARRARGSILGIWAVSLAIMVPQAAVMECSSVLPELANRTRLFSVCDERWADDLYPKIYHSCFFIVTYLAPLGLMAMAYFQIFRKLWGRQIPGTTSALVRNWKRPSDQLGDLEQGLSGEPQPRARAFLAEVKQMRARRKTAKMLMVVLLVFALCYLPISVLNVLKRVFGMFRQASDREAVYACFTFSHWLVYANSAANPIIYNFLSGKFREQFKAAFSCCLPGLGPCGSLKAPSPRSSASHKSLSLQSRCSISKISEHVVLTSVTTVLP
Description: (§1) The cell pellet was either stored at −80° C. or used directly. Before the experiments, cell membranes were re-suspended in binding assay buffer (10 mM HEPES, 0.5% (w/v) bovine serum albumin, pH 7.5) by homogenisation with a Polytron homogeniser at 50 Hz for 20 s. Cell membranes were also used as made available by commercial providers.
(§2) Bound radioactivity was measured, and data were analysed with the program XLFIT or Graphpad Prism. Protein concentration was determined according to the Bradford/BioRad Protein Assay Kit.
(§3) In competition experiments, cell homogenates (150 μl) were incubated in assay buffer (10 mM HEPES, pH 7.5, 0.5% (w/v) bovine serum albumin, 5 mM MgCl2, 1 mMCaCl2, and tween 0.05%) for 1 h at room temperature with about 1 nM of the radioligand [^3H]-SB649868, 66 Ci/mmole, 50 μl), and with various concentrations of compounds of the invention (50 μl) in triplicates; non-specific binding was determined in the presence of almorexant (10 μM). Reactions were terminated by vacuum filtration, 3 washes of ice cold wash buffer (Tris-HCl pH 7.4/10 mM, with NaCl 154 mM). Competition data is expressed in Table 2 as Kd [μM].

human orexin 2 receptors [3] = biological target: T1, human orexin 2 receptors; experiment: Radioligand binding assay ([3H]-SB649868 competition), hOx2R; conditions: competition with about 1 nM [3H]-SB649868; CHO or HEK cell membranes expressing human orexin 2 receptor; read-out: binding hOx2R Kd
Description: as §1, §2
as §3, with “μM).” for “μM). Reactions were terminated by vacuum filtration, 3 washes of ice cold wash buffer (Tris-HCl pH 7.4/10 mM, with NaCl 154 mM). Competition data is expressed in Table 2 as Kd [μM].”

human orexin 1 receptors [4] = biological target: T2, human orexin 1 receptors; experiment: Calcium accumulation in cells (FLIPR), hOx1R; conditions: for inhibition at 10 µM: read-out: FLIPR hOx1R % inhibition value

Row | SMILES | Ki (human orexin 2 receptors [1]) | Kd (human orexin 1 receptors [2]) | Kd (human orexin 2 receptors [3]) | Ki (human orexin 1 receptors [4]) | inhibition at 10 µM (human orexin 1 receptors [4])
1 | Cc1cc(C#N)nc(N2CCC3(CCCN(Cc4cccc(-c5ncccn5)c4)C3=O)CC2)n1 [Example 32, 6-methyl-2-(1-oxo-2-(3-(pyrimidin-2-yl)benzyl)-2,9-diazaspiro[5.5]undecan-9-yl)pyrimidine-4-carbonitrile] | 59 nM | > 10000 nM | 383 nM | 1860 nM | 
2 | N#Cc1ccnc(N2CCC3(CCCN(Cc4c[nH]c5ccccc45)C3=O)CC2)n1 [Example 80, 2-(2-((1H-indol-3-yl)methyl)-1-oxo-2,9-diazaspiro[5.5]undecan-9-yl)pyrimidine-4-carbonitrile] | 50 nM | 7760 nM | 1100 nM |  | 41%
3 | COCc1cccc(-c2ocnc2CN2CCCC3(CCN(c4nc(C)cc(C)n4)CC3)C2=O)c1 [Example 123, 9-(4,6-dimethylpyrimidin-2-yl)-2-((5-(3-(methoxymethyl)phenyl)oxazol-4-yl)methyl)-2,9-diazaspiro[5.5]undecan-1-one] | 18 nM | 3240 nM | 71 nM | 1780 nM | 
4 | Cc1cncc(N2CCC3(CCCC(=O)N3Cc3cccc4[nH]ccc34)CC2)n1 [Example 41, 1-((1H-indol-4-yl)methyl)-9-(6-methylpyrazin-2-yl)-1,9-diazaspiro[5.5]undecan-2-one] | 15 nM | 2820 nM | 85 nM | 1640 nM | 
5 | Cc1cc(C)nc(N2CCC3(CCCN(Cc4c[nH]c5ccccc45)C3=O)CC2)n1 [Example 5, 2-((1H-indol-3-yl)methyl)-9-(4,6-dimethylpyrimidin-2-yl)-2,9-diazaspiro[5.5]undecan-1-one] | 10 nM | 966 nM | 35 nM | 870 nM | 
6 | Cc1cc(N(C)C)nc(N2CCC3(CCCN(Cc4c[nH]c5ccccc45)C3=O)CC2)n1 [Example 113, 2-((1H-indol-3-yl)methyl)-9-(4-(dimethylamino)-6-methylpyrimidin-2-yl)-2,9-diazaspiro[5.5]undecan-1-one] | 21 nM | 389 nM | 28 nM | 1430 nM | 
7 | Cc1ccnc(N2CCC3(CCCN(Cc4c[nH]c5ccccc45)C3=O)CC2)c1 [Example 67, 2-((1H-indol-3-yl)methyl)-9-(4-methylpyridin-2-yl)-2,9-diazaspiro[5.5]undecan-1-one] | 134 nM | 3590 nM | 315 nM |  | < 10%
8 | Cc1cc(C)nc(N2CCC3(CCCN(Cc4cn(C)c5ccccc45)C3=O)CC2)n1 [Example 6, 9-(4,6-dimethylpyrimidin-2-yl)-2-((1-methyl-1H-indol-3-yl)methyl)-2,9-diazaspiro[5.5]undecan-1-one] | 26 nM | 4540 nM | 153 nM | 1530 nM | 
9 | Cc1cc(C)nc(N2CCC3(CCCC(=O)N3Cc3cccc4[nH]ccc34)CC2)n1 [Example 3, 1-((1H-indol-4-yl)methyl)-9-(4,6-dimethylpyrimidin-2-yl)-1,9-diazaspiro[5.5]undecan-2-one] | 0.9 nM | 483 nM | 12 nM | 381 nM | 
10 | COc1cc(C)nc(N2CCC3(CCCN(Cc4c[nH]c5ccccc45)C3=O)CC2)n1 [Example 4, 2-((1H-indol-3-yl)methyl)-9-(4-methoxy-6-methylpyrimidin-2-yl)-2,9-diazaspiro[5.5]undecan-1-one] | 2.2 nM | 863 nM | 43 nM | 135 nM | 
11 | COCc1cccc(-c2oc(C)nc2CN2CCCC3(CCN(c4nc(C)cc(C)n4)CC3)C2=O)c1 [Example 124, 9-(4,6-dimethylpyrimidin-2-yl)-2-((5-(3-(methoxymethyl)phenyl)-2-methyloxazol-4-yl)methyl)-2,9 diazaspiro[5.5]undecan-1-one] | 1.2 nM | 368 nM | 19 nM | 101 nM | 
12 | Cc1cc(C)nc(N2CCC3(CCCN(Cc4cccc(-c5ncccn5)c4)C3=O)CC2)c1 [Example 74, 9-(4,6-dimethylpyridin-2-yl)-2-(3-(pyrimidin-2-yl)benzyl)-2,9-diazaspiro[5.5]undecan-1-one] | 160 nM | > 10000 nM | 338 nM | 2150 nM | 
13 | Cc1cc(C)nc(N2CCC3(CCCN(Cc4n[nH]c5ccccc45)C3=O)CC2)n1 [Example 45, 2-((1H-indazol-3-yl)methyl)-9-(4,6-dimethylpyrimidin-2-yl)-2,9-diazaspiro[5.5]undecan-1-one] | 10 nM | 1060 nM | 64 nM | 521 nM | 
14 | COc1cc(OC)nc(N2CCC3(CCCN(Cc4c[nH]c5ccccc45)C3=O)CC2)n1 [Example 88, 2-((1H-indol-3-yl)methyl)-9-(4,6-dimethoxypyrimidin-2-yl)-2,9-diazaspiro[5.5]undecan-1-one] | 46 nM | 5060 nM | 611 nM | 406 nM | 
15 | Cc1cc(C)nc(N2CCC3(CCCN(Cc4nn(C)cc4-c4ccccc4)C3=O)CC2)n1 [Example 107, 9-(4,6-dimethylpyrimidin-2-yl)-2-((1-methyl-4-phenyl-1H-pyrazol-3-yl)methyl)-2,9-diazaspiro[5.5]undecan-1-one] | 20 nM | 2250 nM | 166 nM | 833 nM | 
16 | Cc1cc(C)nc(N2CCC3(CCCN(Cc4cccc(-c5ncc(C)o5)c4)C3=O)CC2)n1 [Example 36, 9-(4,6-dimethylpyrimidin-2-yl)-2-(3-(5-methyloxazol-2-yl)benzyl)-2,9-diazaspiro[5.5]undecan-1-one] | 38 nM | 431 nM | 89 nM | 714 nM | 
17 | N#Cc1cccc(N2CCC3(CCCN(Cc4c[nH]c5ccccc45)C3=O)CC2)n1 [Example 83, 6-(2-((1H-indol-3-yl)methyl)-1-oxo-2,9-diazaspiro[5.5]undecan-9-yl)picolinonitrile] | 13 nM | > 10000 nM | 2110 nM | 1520 nM | 
18 | Cc1cnc(-c2cccc(CN3CCCC4(CCN(c5cc(C#N)ccn5)CC4)C3=O)c2)o1 [Example 40, 2-(2-(3-(5-methyloxazol-2-yl)benzyl)-1-oxo-2,9-diazaspiro[5.5]undecan-9-yl)isonicotinonitrile] | 19 nM | 332 nM | 37 nM | 241 nM | 
19 | Cc1ccnc(N2CCC3(CCCN(Cc4cccc(-c5ncc(C)o5)c4)C3=O)CC2)n1 [Example 38, 2-(3-(5-methyloxazol-2-yl)benzyl)-9-(4-methylpyrimidin-2-yl)-2,9-diazaspiro[5.5]undecan-1-one] | 43 nM | 1190 nM | 177 nM | 924 nM | 
20 | Cc1cc(C)nc(N2CCC3(CCCN(Cc4ccccc4-c4nc(C)no4)C3=O)CC2)n1 [Example 1, 9-(4,6-dimethylpyrimidin-2-yl)-2-(2-(3-methyl-1,2,4-oxadiazol-5-yl)benzyl)-2,9-diazaspiro[5.5]undecan-1-one] |  | 2020 nM | 66 nM |  | 
21 | COc1ccnc(N2CCC3(CCCN(Cc4c[nH]c5ccccc45)C3=O)CC2)n1 [Example 13, 2-((1H-indol-3-yl)methyl)-9-(4-methoxypyrimidin-2-yl)-2,9-diazaspiro[5.5]undecan-1-one] |  | 924 nM | 74 nM | 527 nM | 
